Source: PubChem BioAssay AID328 (DTP/NCI, 2004)
Values joined by “and” are separate entries in the source; they are usually repeats but may differ in a detail not shown here. Identical values can stand only once. Toxic doses and inconclusive results are not listed. The calls were made as follows: active = survival T/C of 150% or more; inactive = T/C below 125% in these data.

System: BDF1 mice, P388 leukemia ip, median survival T/C
Test: NCI In Vivo Anticancer Drug Screen. Data for tumor model P388 Leukemia (intraperitoneal) in B6D2F1 (BDF1) mice
Details: endpoint: median survival time, higher = longer survival
Summary of the method: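 Steps: implant the tumour, treat one group with compound and another with vehicle, record survival, then divide treated by control.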

[1] = dose: 100.0 mg/kg/injection, schedule: Q01DX009 (ip), vehicle: Klucel (hydroxypropylcellulose) (HPC)
[2] = dose: 200.0 mg/kg/injection, schedule: Q01DX009 (ip), vehicle: Klucel (hydroxypropylcellulose) (HPC)
[3] = dose: 400.0 mg/kg/injection, schedule: Q01DX009 (ip), vehicle: Klucel (hydroxypropylcellulose) (HPC)
[4] = dose: 100.0 mg/kg/injection, schedule: Q01DX009 (ip), vehicle: saline
[5] = dose: 200.0 mg/kg/injection, schedule: Q01DX009 (ip), vehicle: saline
[6] = dose: 400.0 mg/kg/injection, schedule: Q04DX003 (ip), vehicle: saline with Tween-80
[7] = dose: 100.0 mg/kg/injection, schedule: Q01DX009 (ip), vehicle: saline with Tween-80
[8] = dose: 50.0 mg/kg/injection, schedule: Q01DX009 (ip), vehicle: saline with Tween-80
[9] = dose: 50.0 mg/kg/injection, schedule: Q04DX003 (ip), vehicle: saline with Tween-80
[10] = dose: 100.0 mg/kg/injection, schedule: Q04DX003 (ip), vehicle: saline with Tween-80
[11] = dose: 200.0 mg/kg/injection, schedule: Q04DX003 (ip), vehicle: saline with Tween-80
[12] = dose: 100.0 mg/kg/injection, schedule: Q04DX003 (ip), vehicle: Klucel (hydroxypropylcellulose) (HPC)
[13] = dose: 200.0 mg/kg/injection, schedule: Q04DX003 (ip), vehicle: Klucel (hydroxypropylcellulose) (HPC)
[14] = dose: 400.0 mg/kg/injection, schedule: Q04DX003 (ip), vehicle: Klucel (hydroxypropylcellulose) (HPC)
[15] = dose: 50.0 mg/kg/injection, schedule: Q01DX009 (ip), vehicle: Klucel (hydroxypropylcellulose) (HPC)
[16] = dose: 200.0 mg/kg/injection, schedule: Q01DX009 (ip), vehicle: saline with Tween-80

Measured: T/C

Cc1ccc(C2NC(=O)c3ccccc3N2)c(C)c1 (stereo not drawn)
inactive: [1] 110 % of control | [2] 110 % of control | [3] 120 % of control

CC(C)OC(=O)C1(N)CCCC1
inactive: dose: 50.0 mg/kg/injection, schedule: Q01DX009 (ip), vehicle: saline 109 % of control | [4] 109 % of control | [5] 86 % of control | [6] 113 % of control | dose: 400.0 mg/kg/injection, schedule: Q04DX003 (ip), vehicle: saline 116 % of control | dose: 600.0 mg/kg/injection, schedule: Q04DX003 (ip), vehicle: saline with Tween-80 86 % of control | dose: 600.0 mg/kg/injection, schedule: Q04DX003 (ip), vehicle: saline 91 % of control

CC(C)N1c2c(nc(N)[nH]c2=O)NCC1CNc1ccc(C(=O)NC(CCC(=O)O)C(=O)O)cc1 (stereo not drawn)
inactive: [4] 105 % of control | dose: 150.0 mg/kg/injection, schedule: Q01DX009 (ip), vehicle: saline 90 % of control | [5] 97 % of control | dose: 300.0 mg/kg/injection, schedule: Q01DX009 (ip), vehicle: saline 93 % of control | dose: 400.0 mg/kg/injection, schedule: Q01DX009 (ip), vehicle: saline 110 % of control

CN=S(=O)(OCC#CCOS(=O)(=NC)c1ccc(C)cc1)c1ccc(C)cc1 (stereo not drawn)
inactive: dose: 100.0 mg/kg/injection, schedule: Q01DX009 (ip), vehicle: saline + alcohol 87 % of control | [7] 94 % of control
active: dose: 50.0 mg/kg/injection, schedule: Q01DX009 (ip), vehicle: saline + alcohol 151 % of control

Cc1ccc(S(=O)(=O)Cl)c(Cl)c1
inactive: dose: 25.0 mg/kg/injection, schedule: Q01DX009 (ip), vehicle: saline with Tween-80 100 % of control | [8] 116 % of control | [9] 104 % of control | [7] 112 % of control | [10] 113 % of control

COc1cc2c(cc1OC)C1=C(CC2)C2CCCN2CC1 (stereo not drawn)
inactive: dose: 6.25 mg/kg/injection, schedule: Q01DX009 (ip), vehicle: saline 95 % of control | dose: 12.5 mg/kg/injection, schedule: Q01DX009 (ip), vehicle: saline 105 % of control | dose: 25.0 mg/kg/injection, schedule: Q01DX009 (ip), vehicle: saline 95 % of control

COC(=O)c1cc(Cl)cc(C(=O)OC)c1
inactive: [10] 100 % of control | [11] 90 % of control | [6] 95 % of control

COc1cccc2c(=O)cc(C)[nH]c12
inactive: dose: 25.0 mg/kg/injection, schedule: Q01DX009 (ip), vehicle: water 107 % of control | dose: 50.0 mg/kg/injection, schedule: Q01DX009 (ip), vehicle: water 92 % of control | dose: 50.0 mg/kg/injection, schedule: Q04DX003 (ip), vehicle: water 103 % of control | dose: 100.0 mg/kg/injection, schedule: Q01DX009 (ip), vehicle: water 101 % of control | dose: 100.0 mg/kg/injection, schedule: Q04DX003 (ip), vehicle: water 97 % of control | dose: 200.0 mg/kg/injection, schedule: Q01DX009 (ip), vehicle: water 91 % of control | dose: 200.0 mg/kg/injection, schedule: Q04DX003 (ip), vehicle: water 106 % of control | dose: 400.0 mg/kg/injection, schedule: Q01DX009 (ip), vehicle: water 90 % of control | dose: 400.0 mg/kg/injection, schedule: Q04DX003 (ip), vehicle: water 98 % of control

CCOC(=O)CCSC(C)(C)C(=O)OCC
inactive: [1] 100 % of control | [12] 104 % of control | [2] 105 % of control | [13] 104 % of control | [3] 105 % of control | [14] 100 % of control

C=CCN1C(=O)C=CC1=O
inactive: dose: 0.75 mg/kg/injection, schedule: Q01DX009 (ip), vehicle: saline 102 % of control | dose: 3.0 mg/kg/injection, schedule: Q01DX009 (ip), vehicle: saline 117 % of control

C[C@]12CC[C@H]3[C@@H](CC[C@]4(O)C[C@@H](O)CC[C@]34C=O)[C@@]1(O)CC[C@@H]2C1=CC(=O)OC1
inactive: dose: 12.5 mg/kg/injection, schedule: Q01DX009 (ip), vehicle: Klucel (hydroxypropylcellulose) (HPC) 105 % of control | dose: 25.0 mg/kg/injection, schedule: Q01DX009 (ip), vehicle: Klucel (hydroxypropylcellulose) (HPC) 95 % of control | dose: 25.0 mg/kg/injection, schedule: Q01DX010 (ip), vehicle: carboxymethylcellulose (CMC) 100 % of control | [15] 109 % of control and 115 % of control | [1] 100 % of control | dose: 100.0 mg/kg/injection, schedule: Q01DX010 (ip), vehicle: carboxymethylcellulose (CMC) 105 % of control | [2] 100 % of control | dose: 200.0 mg/kg/injection, schedule: Q01DX010 (ip), vehicle: carboxymethylcellulose (CMC) 105 % of control

CSC(=S)N/N=C(\C)c1ccccn1
inactive: dose: 25.0 mg/kg/injection, schedule: Q04DX003 (ip), vehicle: saline with Tween-80 92 % of control | [9] 99 % of control | [10] 106 % of control

CN(C)CC/C=C1\c2ccccc2Sc2ccc(C(F)(F)F)cc21
inactive: dose: 9.2 mg/kg/injection, schedule: Q04DX003 (ip), vehicle: saline 112 % of control and 113 % of control | dose: 21.0 mg/kg/injection, schedule: Q04DX003 (ip), vehicle: saline 116 % of control | dose: 29.0 mg/kg/injection, schedule: Q04DX003 (ip), vehicle: saline 100 % of control | dose: 65.0 mg/kg/injection, schedule: Q01DX001 (ip), vehicle: saline 122 % of control

O=NN(CCF)C(=O)NC1CCS(=O)(=O)CC1
inactive: dose: 0.15 mg/kg/injection, schedule: Q04DX003 (ip), vehicle: saline 115 % of control | dose: 0.3 mg/kg/injection, schedule: Q04DX003 (ip), vehicle: saline 120 % of control

C1=NCCCN1
inactive: dose: 25.0 mg/kg/injection, schedule: Q04DX003 (ip), vehicle: saline 100 % of control | dose: 50.0 mg/kg/injection, schedule: Q04DX003 (ip), vehicle: saline 100 % of control | dose: 100.0 mg/kg/injection, schedule: Q04DX003 (ip), vehicle: saline 100 % of control

Cn1c(=O)[nH]cc([N+](=O)[O-])c1=O
inactive: [8] 104 % of control | [7] 105 % of control | [16] 98 % of control

OCC1OC(OC2(CO)OC(CO)C(O)C2O)C(O)C(O)C1O (stereo not drawn)
inactive: dose: 11.0 mg/kg/injection, schedule: Q01DX009 (ip), vehicle: saline 118 % of control | dose: 22.0 mg/kg/injection, schedule: Q01DX009 (ip), vehicle: saline 113 % of control and 115 % of control | dose: 67.0 mg/kg/injection, schedule: Q01DX009 (ip), vehicle: saline 115 % of control and 122 % of control | dose: 100.0 mg/kg/injection, schedule: Q01DX010 (ip), vehicle: saline 115 % of control | dose: 200.0 mg/kg/injection, schedule: Q01DX010 (ip), vehicle: saline 103 % of control | dose: 400.0 mg/kg/injection, schedule: Q01DX010 (ip), vehicle: saline 100 % of control | dose: 600.0 mg/kg/injection, schedule: Q01DX010 (ip), vehicle: saline 115 % of control

COC(=O)c1cc(OC)cc(OC)c1
inactive: dose: 100.0 mg/kg/injection, schedule: Q04DX003 (ip), vehicle: other 100 % of control | dose: 200.0 mg/kg/injection, schedule: Q04DX003 (ip), vehicle: other 113 % of control | dose: 400.0 mg/kg/injection, schedule: Q04DX003 (ip), vehicle: other 109 % of control

CCC1(C)CCC2=C(CCC3C(C)(C(=O)O)CCCC23C)C1 (stereo not drawn)
inactive: [8] 100 % of control | [9] 96 % of control | [7] 87 % of control | [16] 100 % of control | [11] 96 % of control

O=C1OC(=O)C2C1C(c1ccc(Cl)cc1)N1C3C(=O)OC(=O)C3C(c3ccc(Cl)cc3)N21 (stereo not drawn)
inactive: [8] 97 % of control | [7] 93 % of control | [16] 88 % of control

Cc1ccc(/C=C2/C=C(c3ccccc3)OC2=O)cc1
inactive: [15] 109 % of control | [1] 109 % of control | [12] 100 % of control | [2] 100 % of control | [13] 95 % of control | [14] 90 % of control
